For one assay, the system named is Puccinia triticina. Nature of the assay: Wheat brown rust (PUCCRT) disease control on wheat seedlings. The following applies: LV activity at 121.5 g/H. In kind it is in vivo, Puccinia triticina on wheat plants (variety Yuma). Here is the method: Technical grades of materials were dissolved in acetone, which were then mixed with nine volumes of water (H2O) containing 110 ppm Triton X-100. The fungicide solutions were applied onto wheat seedlings using an automated booth sprayer to run-off. All sprayed plants were allowed to air dry prior to further handling. All fungicides were evaluated using the aforementioned method for their activity vs. all target diseases, unless stated otherwise. Wheat leaf blotch and brown rust activity were also evaluated using track spray applications, in which case the fungicides were formulated as EC formulations, containing 0.1% Trycol 5941 in the spray solutions. Wheat plants (variety Yuma) were grown from seed in a greenhouse in 50% mineral soil/50% soil-less Metro mix until the first leaf was fully emerged, with 7-10 seedlings per pot. These plants were inoculated with an aqueous spore suspension of Zymoseptoria tritici either prior to or after fungicide treatments. […] When disease symptoms were fully expressed on the 1st leaves of untreated plants, infection levels were assessed on a scale of 0 to 100 percent disease severity. Percent disease control was calculated using the ratio of disease severity on treated plants relative to untreated plants. […]

The test system of another assay is Zymoseptoria tritici. Nature of the assay: Leaf blotch of wheat (SEPTTR) disease control on wheat seedlings. The settings on record: LV activity at 121.5 g/H. In kind it is in vivo, Zymoseptoria tritici on wheat plants (variety Yuma). Here is the method: Technical grades of materials were dissolved in acetone, which were then mixed with nine volumes of water (H2O) containing 110 ppm Triton X-100. The fungicide solutions were applied onto wheat seedlings using an automated booth sprayer to run-off. All sprayed plants were allowed to air dry prior to further handling. All fungicides were evaluated using the aforementioned method for their activity vs. all target diseases, unless stated otherwise. Wheat leaf blotch and brown rust activity were also evaluated using track spray applications, in which case the fungicides were formulated as EC formulations, containing 0.1% Trycol 5941 in the spray solutions. Wheat plants (variety Yuma) were grown from seed in a greenhouse in 50% mineral soil/50% soil-less Metro mix until the first leaf was fully emerged, with 7-10 seedlings per pot. These plants were inoculated with an aqueous spore suspension of Zymoseptoria tritici either prior to or after fungicide treatments. […] When disease symptoms were fully expressed on the 1st leaves of untreated plants, infection levels were assessed on a scale of 0 to 100 percent disease severity. Percent disease control was calculated using the ratio of disease severity on treated plants relative to untreated plants.

In US10334852B2, “Pyrido-1,3-oxazine-2,4-dione compounds with fungicidal activity” (Dow AgroSciences LLC, priority 2016, dated 2019) one finds pest or weed control data, which are given here for 1 compound.

Where two headings read alike, the source gives them in different places.

For `CCc1cc(OC)ccc1C(c1ccc(OC)cc1OC)[C@H](C)OC(=O)[C@H](C)n1c(=O)oc2c(OC)ccnc2c1=O` (stereo partly shown) [Compound 8], the pest or weed control at 121.5 g/ha was at most 80% in the assay with Puccinia triticina (24 h, 1 Day Protectant, read-out: PUCCRT 1DP disease control rating); at most 80% in the assay on Puccinia triticina (72 h, 3 Day Curative, read-out: PUCCRT 3DC disease control rating); above 80% in the assay with Zymoseptoria tritici (24 h, 1 Day Protectant, read-out: SEPTTR 1DP disease control rating); above 80% in the assay with Zymoseptoria tritici (72 h, 3 Day Curative, read-out: SEPTTR 3DC disease control rating).
